What was measured:
[1] = test system: HT-29; assay: Cellular uptake in human HT-29 spheroids of diameter 600+/-10 um assessed per mg of protein at 0.4 MBq after 4 hrs by gamma counting; format: ADME, cell-based; details: ht-29, 4 h
[2] = test system: HT-29; details: human, ht-29, 4 h
Description: Cellular uptake in human HT-29 monolayers assessed per mg of protein at 0.4 MBq after 4 hrs by gamma counting

[3] = test system: HT-29; assay: Cellular uptake in human HT-29 spheroids of diameter 300+/-10 um assessed per mg of protein at 0.4 MBq after 4 hrs by gamma counting; format: ADME, cell-based; details: ht-29, 4 h

O=[N+]([O-])c1nccn1CC(O)C[18F] (stereo not drawn) [[18F]FLUOROMISONIDAZOLE]
Drug uptake [1]: 9.86 %ID
Drug uptake [2]: 1.03 %ID
Drug uptake [3]: 1.17 %ID
